Measurements published in patent publication US20020155126A1, “Pharmacological composition containing yeast cell wall fraction” (priority 2001, published 2002).

Assays:
[1] = test system: NC/Nga mice (models for atopic dermatitis); experiment: Test Example 4: anti-atopic dermatitis test, NC/Nga mice, picryl chloride hapten challenge; format: in vivo
Procedure: Next, test was conducted on the anti-atopic dermatitis effect of the yeast cell wall fraction. As a test specimen, NC/Nga mice (5.5 weeks old) were preliminarily raised for 2 weeks with solid foodstuff (CE-2, manufactured by Clea Japan, Inc.) and, after adaptation to the experimental environment, were used upon being separated into groups of 7 mice each. […] Hapten sensitization was conducted 1 week after the commencement of test foodstuff administration, and the initial (first) hapten challenge was conducted a week thereafter, and a hapten challenge was conducted for each elapsed week thereafter, and the final (eighth) hapten challenge was conducted […] after the commencement of test foodstuff administration. […] In the aforementioned anti-atopic dermatitis test, the clinical score and total plasma IgE level were measured with time. […] The clinical score was comprehensively evaluated in […] evaluation phases of score (0)none, (1)mild, (2)moderate, (3)severe, regarding the 5 symptoms of acomia of scalp; bleeding and erosion of scalp; bleeding and erosion of auricle portion; corpulence, edema, and purpura of auricle portion; and deformation and disappearance of auricle porition. […]

[2] = test system: NC/Nga mice (model for delayed-type hypersensitivity); experiment: Test Example 5: inhibition effect of delayed-type hypersensitivity, NC/Nga mice; format: in vivo
Procedure: The same test mice and test foodstuff as in Test Example 4 were used to conduct a test on the inhibition effect of delayed-type hypersensitivity. The NC/Nga mice, as described above, are known as a model for atopic dermatitis, but can also be used as a model for delayed-type hypersensitivity. The administration of test foodstuff to the test mice was continued until the end of the test. Hapten sensitization was conducted 1 week after the commencement of the foodstuff administration, hapten challenge was conducted 1 week thereafter upon measuring the thickening of the auricle portion prior to the challenge, and measurement of the thickening of the auricle portion 24 hours later was conducted once again. Hapten sensitization was conducted by applying picryl chloride 7% by weight ethanol solution 100 μl to the abdomen, and the hapten challenge was conducted by applying picryl chloride 1% by weight olive oil solution 10 μl to both faces of each auricle portion. The anti-inflammation effect was measured by seeking the edema ratio and tumidity from the aforementioned test results. […]

[3] = after the completion of administration of the test foodstuff

OC[C@H]1O[C@H](OC[C@H]2O[C@H](O[C@]3(CO)O[C@H](CO)[C@@H](O)[C@@H]3O)[C@H](O)[C@@H](O)[C@@H]2O)[C@H](O)[C@@H](O)[C@H]1O [Raffinose]
Final Weight, Mean [1, 3]: 25.9 g | Ingestion, Mean ([1]; daily foodstuff ingestion amount, anti-atopic dermatitis test): 4.05 g/day | Final Weight, Mean [2, 3]: 24.2 g | Ingestion, Mean ([2]; daily foodstuff ingestion amount, delayed-type hypersensitivity test): 4.2 g/day
